Patent US6906108B2, “Extracts of vetiver oil as repellent and toxicant to ants, ticks, and cockroaches” (Board of Supervisors of Louisiana State University and …, priority 2001, dated 2005)

What was measured:
Format in all cases: in vivo
[1] = test system: ticks (Ixodes scapularis); test: Tick Petri dish bioassay with treated sand (repellency and toxicity)
Experimental: To test the effectiveness of nootkatone against ticks, ticks (Ixodes scapularis) were collected from Idlewild, La. Nootkatone efficiacy was tested relative to a known repellent, N,N-diethyl-m-toluamide (“Deet”). REPEL®, which contains 27.55% Deet, was purchased locally from a retail garden store.
The bioassay was conducted using Petri dishes (5 cm diameter and 1 cm height). To ensure adequate moisture for the ticks, 1 ml of a hot agar solution (1.5% in H2O) was spread evenly on the inside surfaces of the Petri dish, including the top, bottom, and edges. After the agar cooled, sand that was treated as described below was spread evenly on the inside surfaces of the Petri dish. The sand was held in place by the agar.
For the treated sand, either 2 mg nootkatone or 100 mg REPEL® was initially dissolved in 2 ml ethanol, and then 200 μl of the solution was mixed with 2 g sand that had been autoclaved and cooled. The control was autoclaved sand with 200 μl ethanol only added. One half of the surfaces in the Petri dishes were covered with 2 g treated sand, and the other half with 2 g untreated sand. In the nootkatone-treated Petri dishes, the final concentration was 200 μg/dish; while in the Deet treated Petri dishes, the final concentration was 2.75 mg/dish. Control Petri dishes were prepared by covering all sides with untreated sand. One tick was added to each Petri dish, and the top replaced. The number of replicates were as follows: control, 6; nootkatone, 9; and Deet, 8. […] Repellent activity was noted if the tick was found on the untreated side of the Petri dish. The ticks in the control Petri dishes were randomly distributed on the left and right sides.
The above experiment was repeated with ticks (Ix. scapularis) collected from Hammond, La. The number of replicates in this experiment were as follows: controls, 8; nootkatone, 10; and Deet, 8.

[2] = test system: cat fleas (Ctenocephalides felis (Bouche)); test: Cat flea Petri dish filter paper bioassay (repellency and mortality)
Experimental: To test the effectiveness of nootkatone against fleas, cat fleas (Ctenocephalides felis (Bouche)) were collected from a flea colony at St. Gabriel, La.
Petri dishes (5 cm diameter and 1 cm height) were prepared by lining one half of the top and the bottom with a half circle of filter paper (55 mm), and lining the other half with a second half circle of filter paper. For the treated Petri dishes, 50 mg nootkatone or 100 mg REPEL® were dissolved in 0.5 ml ethanol. […] Ten replicate Petri dishes were used for each of the treatments. The ethanol solution was added to the filter paper on the top and bottom and dried for 10 min. To place the fleas in the Petri dishes, fleas were temporarily immobilized by placing them at −20° C. for 5 min. The number of fleas in each Petri dish varied: for the 10 control Petri dishes, the average number in each dish was 10.2, with a range of 4 to 23; for 0.2 mg nootkatone, the average number in each dish was 8.5, with a range of 5 to 18; for 1 mg nootkatone, the average number in each dish was 10.6, with a range of 6 to 21; for 2 mg nootkatone, the average number in each dish was 11.1, with a range of 9 to 15 (Fleas could be counted in only 9 Petri dishes; one had too many fleas to count); and for 2.76 mg Deet, the average number in each dish was 6.7, with a range of 5 to 9.
The number of fleas on each side of each Petri dish was counted at 1 hr, 2 hr, 3 hr, 4 hr, 24 hr, 48 hr, 72 hr, and 96 hr.

[3] = test system: German cockroaches (Blattella germanica); test: German cockroach Petri dish filter paper bioassay (repellency and toxicity)
Experimental: To test the efficacy of nootkatone against cockroaches, German cockroaches (Blattella germanica) were collected at Baton Rouge, La., the same day as the bioassay was begun.
For the bioassay, Petri dishes (10 cm diameter×1 cm) were used. The Petri dishes were prepared by lining one half of the top and one half of the bottom with a half circle of filter paper (125 mm), and lining the other half with a second half circle of filter paper. For the treated Petri dishes, 50 mg nootkatone and 300 mg REPEL® were dissolved in 2.0 ml ethanol. To each Petri dish was added either ethanol only, 30 mg Deet, 1 mg nootkatone, or 10 mg nootkatone. Ten replicate Petri dishes were used for each of the treatments. The ethanol solution was added to the filter paper on the top and bottom and dried for 10 min. One cockroach was added to each Petri dish. The length of the cockroaches varied from 1 to 1.5 cm. The dishes were then observed at 15 min, 30 min, 1 hr, 2 hr, 3 hr, 4 hr, 5 hr, 24 hr, 48 hr, and 120 hr.

[4] = 200 μg/dish vs 2.75 mg/dish Deet
[5] = 200 μg/dish, 10 replicates, ticks from Hammond
[6] = 200 μg/dish, ticks from Hammond

C=C(C)C1CCC2=CC(=O)CC(C)C2(C)C1 (centres unmarked) [nootkatone, 4,4a,5,6,7,8-hexahydro-6-isopropenyl-4,4a-dimethyl-2(3H)-naphthalone]
Overall activity against ticks ([1]; 200 μg/dish): effective repellent and toxicant | Duration of repellent activity compared with Deet [1, 4]: longer than Deet | Toxicant strength compared with Deet [1, 4]: stronger toxicant than Deet | Ticks dead after 90 hr (number) ([1]; 200 μg/dish, 9 replicates, one tick per dish, ticks from Idlewild): four | Ticks dead at 24 hr (number) [1, 5]: one | Ticks dead at 72 hr (number) [1, 5]: four | Ticks dead at 96 hr (number) [1, 5]: nine | Ticks dead at 72 hr (percent) [1, 6]: 40% | Ticks dead at 96 hr (percent) [1, 6]: 90% | Ticks dead after 90 hr (percent) ([1]; 200 μg/dish, ticks from Idlewild): 50% | Percent Flea Mortality ([2]; 0.2 mg per dish, 1 hr): 0% | Percent Flea Mortality ([2]; 0.2 mg per dish, 2 hr): 0% | Percent Flea Mortality ([2]; 0.2 mg per dish, 3 hr): 0% | Percent Flea Mortality ([2]; 0.2 mg per dish, 4 hr): 0% | Percent Flea Mortality ([2]; 0.2 mg per dish, 24 hr): 22% | Percent Flea Mortality ([2]; 0.2 mg per dish, 48 hr): 45% | Percent Flea Mortality ([2]; 0.2 mg per dish, 72 hr): 72% | Percent Flea Mortality ([2]; 0.2 mg per dish, 96 hr): 79% | Repellent activity against fleas ([2]; 0.2 mg, 1 mg and 2 mg per dish): no repellent activity | Toxicant activity against fleas ([2]; 0.2 mg, 1 mg and 2 mg per dish): only delayed toxicant activity | Percent Flea Mortality ([2]; 1 mg per dish, 1 hr): 0% | Percent Flea Mortality ([2]; 1 mg per dish, 2 hr): 0% | Percent Flea Mortality ([2]; 1 mg per dish, 3 hr): 16% | Percent Flea Mortality ([2]; 1 mg per dish, 4 hr): 38% | Percent Flea Mortality ([2]; 1 mg per dish, 24 hr): 66% | Percent Flea Mortality ([2]; 1 mg per dish, 48 hr): 92% | Percent Flea Mortality ([2]; 1 mg per dish, 72 hr): 89% | Percent Flea Mortality ([2]; 1 mg per dish, 96 hr): 98% | Percent Flea Mortality ([2]; 2 mg per dish, 1 hr): 0% | Percent Flea Mortality ([2]; 2 mg per dish, 2 hr): 0% | Percent Flea Mortality ([2]; 2 mg per dish, 3 hr): 26% | Percent Flea Mortality ([2]; 2 mg per dish, 4 hr): 50% | Percent Flea Mortality ([2]; 2 mg per dish, 24 hr): 77% | Percent Flea Mortality ([2]; 2 mg per dish, 48 hr): 84% | Percent Flea Mortality ([2]; 2 mg per dish, 72 hr): 91% | Percent Flea Mortality ([2]; 2 mg per dish, 96 hr): 94% | Repellent activity against the cockroaches ([3]; 1 mg per dish): weak repellent | Percent Repellency ([3]; 1 mg per dish, 30 min): 70% | Percent Repellency ([3]; 1 mg per dish, 1 hr): 60% | Percent Repellency ([3]; 1 mg per dish, 2 hr): 50% | Percent Repellency ([3]; 1 mg per dish, 3 hr): 78% | Percent Repellency ([3]; 1 mg per dish, 4 hr): 78% | Percent Repellency ([3]; 1 mg per dish, 5 hr): 78% | Percent Repellency ([3]; 1 mg per dish, 24 hr): 56% | Percent Repellency ([3]; 1 mg per dish, 48 hr): 78% | Percent Repellency ([3]; 1 mg per dish, 120 hr): 100% | Percent Repellency ([3]; 10 mg per dish, 30 min): 90% | Percent Repellency ([3]; 10 mg per dish, 1 hr): 100% | Percent Repellency ([3]; 10 mg per dish, 2 hr): 100% | Percent Repellency ([3]; 10 mg per dish, 3 hr): 100% | Percent Repellency ([3]; 10 mg per dish, 4 hr): 100% | Percent Repellency ([3]; 10 mg per dish, 5 hr): 100% | Percent Repellency ([3]; 10 mg per dish, 24 hr): 100% | Percent Repellency ([3]; 10 mg per dish, 48 hr): 100% | Percent Repellency ([3]; 10 mg per dish, 120 hr): 100% | Number of cockroach deaths compared with the control ([3]; any of the treatments (30 mg Deet; 1 mg or 10 mg nootkatone), up to 120 hr): not significantly different from the control
